Consider one compound from article PMC10302633 (Marine Drugs, 2023).

For one assay, the target named is rat α7 nAChRs (Rattus norvegicus, UniProt Q05941). In words: cell-based. The assay is classed as cell-based.
Another assay concerns the target human α9α10 nAChRs (Homo sapiens, UniProt Q9GZZ6+Q9UGM1). The assay is classed as cell-based.
Another assay concerns the target human α7 nAChRs (Homo sapiens, UniProt P36544). Put plainly: cell-based.
Another assay addresses rat α9α10 nAChRs (Rattus norvegicus, UniProt P43144+Q9JLB5). Type of assay: cell-based.

Chain of rat α7 nAChRs (Q05941 23-502 limits assumed): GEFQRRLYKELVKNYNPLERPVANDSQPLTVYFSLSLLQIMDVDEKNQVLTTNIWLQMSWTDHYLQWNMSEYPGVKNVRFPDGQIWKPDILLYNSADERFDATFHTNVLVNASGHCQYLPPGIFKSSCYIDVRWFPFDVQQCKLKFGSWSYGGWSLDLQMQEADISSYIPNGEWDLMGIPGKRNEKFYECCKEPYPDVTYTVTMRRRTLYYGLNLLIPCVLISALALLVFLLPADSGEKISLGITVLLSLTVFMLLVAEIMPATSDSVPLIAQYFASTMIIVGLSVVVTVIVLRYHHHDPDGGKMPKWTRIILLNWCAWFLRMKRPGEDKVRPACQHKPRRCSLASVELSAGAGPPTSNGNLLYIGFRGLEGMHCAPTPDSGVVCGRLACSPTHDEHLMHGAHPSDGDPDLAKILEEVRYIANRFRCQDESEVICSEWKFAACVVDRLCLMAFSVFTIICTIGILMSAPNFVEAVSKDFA
Chain of human α7 nAChRs (P36544 23-502 limits assumed): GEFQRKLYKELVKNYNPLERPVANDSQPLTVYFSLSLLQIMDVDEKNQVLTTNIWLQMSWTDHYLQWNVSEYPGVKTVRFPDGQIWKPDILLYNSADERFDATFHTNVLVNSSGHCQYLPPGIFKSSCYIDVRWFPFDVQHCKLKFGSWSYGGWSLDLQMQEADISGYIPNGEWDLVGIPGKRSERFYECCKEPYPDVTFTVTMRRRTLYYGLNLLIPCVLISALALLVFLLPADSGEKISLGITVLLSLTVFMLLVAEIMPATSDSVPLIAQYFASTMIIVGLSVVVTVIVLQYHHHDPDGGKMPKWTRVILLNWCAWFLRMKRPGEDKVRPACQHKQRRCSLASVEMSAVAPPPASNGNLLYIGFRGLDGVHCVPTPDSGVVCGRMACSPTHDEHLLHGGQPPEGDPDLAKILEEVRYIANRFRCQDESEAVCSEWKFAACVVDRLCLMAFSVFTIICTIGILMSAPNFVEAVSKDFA
Chain of rat α9α10 nAChRs (P43144 26-479 limits assumed): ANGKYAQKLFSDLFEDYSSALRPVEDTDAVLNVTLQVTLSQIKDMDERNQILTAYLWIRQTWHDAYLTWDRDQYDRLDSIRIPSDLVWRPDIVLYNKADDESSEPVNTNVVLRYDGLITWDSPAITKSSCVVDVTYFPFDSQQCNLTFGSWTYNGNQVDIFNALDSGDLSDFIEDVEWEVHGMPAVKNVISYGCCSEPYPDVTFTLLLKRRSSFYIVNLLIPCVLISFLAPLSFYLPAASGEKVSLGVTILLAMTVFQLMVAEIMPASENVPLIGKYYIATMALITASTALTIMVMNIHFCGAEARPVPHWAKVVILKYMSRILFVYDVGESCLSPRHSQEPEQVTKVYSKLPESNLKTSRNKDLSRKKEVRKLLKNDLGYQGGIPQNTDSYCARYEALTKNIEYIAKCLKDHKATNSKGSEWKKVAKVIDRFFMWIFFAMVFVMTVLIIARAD
Chain of rat α9α10 nAChRs (Q9JLB5 25-447 limits assumed): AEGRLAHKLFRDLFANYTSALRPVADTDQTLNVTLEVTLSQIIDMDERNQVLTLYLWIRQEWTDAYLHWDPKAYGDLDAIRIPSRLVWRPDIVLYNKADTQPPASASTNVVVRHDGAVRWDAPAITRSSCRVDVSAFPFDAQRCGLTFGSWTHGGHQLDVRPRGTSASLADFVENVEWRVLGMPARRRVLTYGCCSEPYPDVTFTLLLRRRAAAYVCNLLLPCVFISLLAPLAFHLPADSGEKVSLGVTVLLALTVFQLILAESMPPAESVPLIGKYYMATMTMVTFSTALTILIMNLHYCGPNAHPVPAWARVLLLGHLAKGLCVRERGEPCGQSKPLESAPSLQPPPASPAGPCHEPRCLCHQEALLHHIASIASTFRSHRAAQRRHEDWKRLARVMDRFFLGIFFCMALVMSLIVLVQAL
Chain of human α9α10 nAChRs (Q9UGM1 26-479 limits assumed): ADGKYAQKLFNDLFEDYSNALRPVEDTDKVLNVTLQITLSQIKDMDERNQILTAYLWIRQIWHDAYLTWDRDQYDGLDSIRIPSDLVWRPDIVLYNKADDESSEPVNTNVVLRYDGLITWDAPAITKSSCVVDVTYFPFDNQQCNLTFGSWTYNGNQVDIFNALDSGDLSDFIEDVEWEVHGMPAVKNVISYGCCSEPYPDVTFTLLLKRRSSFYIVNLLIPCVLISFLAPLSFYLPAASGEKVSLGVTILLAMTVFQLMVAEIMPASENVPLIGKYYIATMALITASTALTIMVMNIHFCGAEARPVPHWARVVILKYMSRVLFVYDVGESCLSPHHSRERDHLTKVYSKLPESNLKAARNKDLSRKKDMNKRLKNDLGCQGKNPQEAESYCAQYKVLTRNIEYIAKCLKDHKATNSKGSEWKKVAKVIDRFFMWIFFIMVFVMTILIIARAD
Chain of human α9α10 nAChRs (Q9GZZ6 25-450 limits assumed): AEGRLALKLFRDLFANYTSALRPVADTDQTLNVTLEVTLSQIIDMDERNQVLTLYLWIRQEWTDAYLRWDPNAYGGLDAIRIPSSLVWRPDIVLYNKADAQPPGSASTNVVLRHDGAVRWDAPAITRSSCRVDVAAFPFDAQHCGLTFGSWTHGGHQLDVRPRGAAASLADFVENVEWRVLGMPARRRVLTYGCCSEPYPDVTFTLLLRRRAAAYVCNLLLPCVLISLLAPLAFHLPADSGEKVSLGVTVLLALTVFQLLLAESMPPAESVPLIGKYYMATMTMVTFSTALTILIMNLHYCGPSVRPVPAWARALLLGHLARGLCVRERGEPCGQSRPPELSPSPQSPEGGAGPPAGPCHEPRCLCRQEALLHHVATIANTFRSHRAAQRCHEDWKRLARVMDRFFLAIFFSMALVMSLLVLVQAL

Usually IC50 stands for the concentration needed to halve the response being measured. Low values mean higher potency, high ones lower potency. In the case of `N=C(N)NCCC[C@H](NC(=O)[C@@H]1CSSC[C@@H]2NC(=O)[C@@H](NC(=O)CN)CSSC[C@H](NC(=O)[C@H](CCCNC(=N)N)NC(=O)[C@@H]3CCCN3C(=O)[C@H](CC(=O)O)NC(=O)[C@H](CO)NC2=O)C(=O)N[C@@H](CCCNC(=N)N)C(=O)N[C@@H](Cc2ccc(O)cc2)C(=O)N[C@@H](CCCNC(=N)N)C(=O)N1)C(=O)O` [RgIA], the “Hill Slope” value at rat α7 nAChRs is on record as 0.8 (0.4–1.1); on human α9α10 nAChRs it was 0.5 (0.4–0.6); at human α7 nAChRs it was 0.7 (0.4–1.0); on rat α9α10 nAChRs it was 0.8 (0.7–0.9). Also, the IC50 at rat α7 nAChRs turned out to be 5.31 µM; against human α7 nAChRs it was 4.61 µM. On rat α7 nAChRs, the “inhibition of ACh-evoked currents” value amounted to 60%.
